# From patent US12281079B2, “Quinoline derivatives, processes for their preparation and uses thereof for the treatment of cancer” (Lead Discovery Center GmbH, priority 2019, dated 2025)
# What was measured:
# [1] = biological target: mitochondrial RNA polymerase (POLRMT) (Mus musculus, UniProt Q8BKF1); assay: Homogeneous TR-FRET assay for mitochondrial transcription activity; type: biochemical; details: homogeneous TR-FRET assay according to Example 4
# How it was run: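 Read-out is TR-FRET (ex 340, em 665 nm) from two adjacent labelled DNA probes annealing to the 407 bp transcript after EDTA/700 mM NaCl stop. Reaction: murine POLRMT, TFAM, TFB2M and LSP plasmid template, compound 10 μM or serial dilution, 10 min rt preincubation, 500 μM each nucleotide, 2 h rt.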
# [2] = test system: mitochondrial transcription (7S RNA) in HeLa cells; assay: Quantitative real time-PCR assay of inhibition of mitochondrial transcription (7S RNA) in HeLa cells; type: cell-based; details: Homo sapiens, 4 h compound incubation, according to Example 5, read-out: cellular qPCR assay
# Protocol: Quantitative real-time PCR (qRT-PCR), based on the TaqMan™ (Thermo Fisher Scientific, Waltham Mass.) technology, was carried out essentially as described in Held et al. (1996). HeLa cells were plated one day before compound treatment in RPMI medium supplemented with 10% Fetal Calf Serum and 2 mM L-glutamine. Cells were incubated with dilution series of compounds or vehicle (DMSO) for 4 h, prior to harvest and extraction of the RNA using the RNeasy Mini Kit (Qiagen, Hilden D), according to the manufacturer's instructions. RNA concentrations were measured spectroscopically, using a NanoDrop-2000 (Thermo Fisher Scientific, Waltham Mass.) and normalized prior to cDNA synthesis, using a ‘High-Capacity cDNA Reverse Transcription Kit’ (Thermo Fisher Scientific, Waltham Mass.). qRT-PCR was carried out using the ‘TaqMan Fast Advance Master Mix’ (Thermo Fisher Scientific, Waltham Mass.) on a 7500 Fast Real-Time PCR machine (Applied Biosystems, Foster City Calif.)
# For these measurements, three genes were used to compare the effect of the scrutinized compounds in relation to their concentration. The POLRMT-gene was used to detect potential influences on nuclear transcription. Mitochondrial transcription in vivo was monitored by measurements 7S RNA. The TBP (TATA-box binding protein) gene was employed as the control (housekeeping gene) during qRT-PCR. The short-lived mitochondrial 7S RNA, which is not post-transcriptionally stabilized, allowed us to monitor rapid changes in mitochondrial transcription activity following compound addition. Biological triplicates were analyzed using the comparative CT Method (ΔΔCt) method (Bubner and Baldwin, 2004) and reported as Rq % values (Rq=Relative quantification=2−ΔΔCt).
# mitochondrial RNA polymerase (POLRMT), sequence (Q8BKF1 42-1207): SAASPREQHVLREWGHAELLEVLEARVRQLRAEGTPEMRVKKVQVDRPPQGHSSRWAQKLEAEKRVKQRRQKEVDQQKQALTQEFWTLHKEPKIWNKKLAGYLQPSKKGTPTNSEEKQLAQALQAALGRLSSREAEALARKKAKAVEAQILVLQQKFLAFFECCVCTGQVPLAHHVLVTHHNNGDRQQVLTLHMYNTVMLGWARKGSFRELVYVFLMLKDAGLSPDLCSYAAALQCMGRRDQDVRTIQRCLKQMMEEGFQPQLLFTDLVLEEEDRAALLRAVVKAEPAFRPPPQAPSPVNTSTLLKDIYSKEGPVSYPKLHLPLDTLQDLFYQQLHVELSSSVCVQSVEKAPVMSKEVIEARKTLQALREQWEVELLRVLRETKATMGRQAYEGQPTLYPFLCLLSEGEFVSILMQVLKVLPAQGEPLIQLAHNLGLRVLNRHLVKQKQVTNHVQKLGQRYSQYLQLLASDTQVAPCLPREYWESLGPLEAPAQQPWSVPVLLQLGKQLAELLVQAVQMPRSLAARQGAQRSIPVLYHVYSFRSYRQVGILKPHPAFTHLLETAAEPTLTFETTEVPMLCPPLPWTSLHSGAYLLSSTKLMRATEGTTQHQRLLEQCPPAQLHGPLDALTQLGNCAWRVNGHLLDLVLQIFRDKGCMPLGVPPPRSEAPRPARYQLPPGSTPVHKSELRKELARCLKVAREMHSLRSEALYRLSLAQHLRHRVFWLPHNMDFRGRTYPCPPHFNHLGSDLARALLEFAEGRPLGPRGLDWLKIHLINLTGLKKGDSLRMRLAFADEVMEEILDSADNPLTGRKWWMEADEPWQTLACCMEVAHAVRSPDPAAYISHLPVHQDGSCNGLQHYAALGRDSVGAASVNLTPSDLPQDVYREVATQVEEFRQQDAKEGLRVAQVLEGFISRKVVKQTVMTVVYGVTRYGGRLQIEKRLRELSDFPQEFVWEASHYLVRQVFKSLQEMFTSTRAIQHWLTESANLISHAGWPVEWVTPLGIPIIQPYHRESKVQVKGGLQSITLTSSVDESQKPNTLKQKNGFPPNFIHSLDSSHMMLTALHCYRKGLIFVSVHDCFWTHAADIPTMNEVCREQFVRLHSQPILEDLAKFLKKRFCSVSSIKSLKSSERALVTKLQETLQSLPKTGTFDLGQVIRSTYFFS
SMILES,IC50 [1],IC50 [2]
"C[C@@H](Oc1ccc2c(-c3c(Cl)cc(F)cc3Cl)ccnc2c1)C(=O)N1CCCC(C2(O)CC2)C1 (mixture of isomers) [Compound 203, rac-(2R)-2-[[4-(2,6-dichloro-4-fluoro-phenyl)-7-quinolyl]oxy]-143-(1-hydroxycyclopropyl)-1-piperidyl]propan-1-one]",100 to 1000 nM,10 to 50 nM
"Cc1ccccc1-c1ccnc2cc(O[C@H](C)C(=O)N3CCC[C@H](C(=O)O)C3)ccc12 [Compound 1, (3S)-1-[(2R)-2-[[4-(o-tolyl)-7-quinolyl]oxy]propanoyl]piperidine-3-carboxylic acid]",< 20 nM,< 10 nM
"Cc1cccc(C)c1-c1ccnc2cc(O[C@H](C)C(=O)N3CCC[C@H](C(=O)O)C3)ccc12 [Compound 2, (3S)-1-[(2R)-2-[[4-(2,6-dimethylphenyl)-7-quinolyl]oxy]propanoyl]piperidine-3-carboxylic acid]",< 20 nM,< 10 nM
"Cc1cccc(C)c1-c1ccnc2cc(O[C@H](C)C(=O)N3CCC[C@H](CC(=O)O)C3)ccc12 [Compound 3, 2-[(3R)-1-[(2R)-2-[[4-(2,6-dimethylphenyl)-7-quinolyl]oxy]propanoyl]-3-piperidyl]acetic acid]",< 20 nM,< 10 nM
"CCOC(=O)[C@H]1CCCN(C(=O)[C@@H](C)Oc2ccc3c(-c4c(C)cccc4C)ccnc3c2)C1 [Compound 4, ethyl (3S)-1-[(2R)-2[[4-(2,6-dimethylphenyl)-7-quinolyl]oxy]propanoyl]piperidine-3-carboxylate]",< 20 nM,< 10 nM
"Cc1cccc(C)c1-c1ccnc2cc(O[C@H](C)C(=O)N3CCC[C@@H](CC(=O)O)C3)ccc12 [Compound 5, 2-[(3S)-1-[(2R)-2-[[4-(2,6-dimethylphenyl)-7-quinolyl]oxy]propanoyl]-3-piperidyl]acetic acid]",< 20 nM,< 10 nM
"C[C@@H](Oc1ccc2c(-c3ccccc3Cl)ccnc2c1)C(=O)N1CCC[C@@H](C(=O)O)C1 [Compound 7, (3R)-1-[(2R)-2-[[4-(2-chlorophenyl)-7-quinolyl]oxy]propanoyl]piperidine-3-carboxylic acid]",< 20 nM,< 10 nM
"CCOC(=O)C[C@H]1CCCN(C(=O)[C@@H](C)Oc2ccc3c(-c4ccccc4C)ccnc3c2)C1 [Compound 8, ethyl 2-[(3R)-1-[(2R)-2-[[4-(o-tolyl)-7-quinolyl]oxy]propanoyl]-3-piperidyl]acetate]",< 20 nM,50 to 500 nM
"C[C@@H](Oc1ccc2c(-c3ccccc3Cl)ccnc2c1)C(=O)N1CCC[C@H](C(=O)O)C1 [Compound 9, (3S)-1-[(2R)-2-[[4-(2-chlorophenyl)-7-quinolyl]oxy]propanoyl]piperidine-3-carboxylic acid]",< 20 nM,< 10 nM
"C[C@@H](Oc1ccc2c(-c3ccc(F)cc3Cl)ccnc2c1)C(=O)N1CCC[C@H](C(=O)O)C1 [Compound 10, (3S)-1-[(2R)-2-[[4-(2-chloro-4-fluoro-phenyl)-7-quinolyl]oxy]propanoyl]piperidine-3-carboxylic acid]",< 20 nM,10 to 50 nM
"C[C@@H](Oc1ccc2c(-c3ccc(F)cc3Cl)ccnc2c1)C(=O)N1CCC[C@H](c2nn[nH]n2)C1 [Compound 11, (2R)-2-[[4-(2-chloro-4-fluoro-phenyl)-7-quinolyl]oxy]-1-[(3S)-3-(2H-tetrazol-5-yl)-1-piperidyl]propan-1-one]",< 20 nM,50 to 500 nM
"C[C@@H](Oc1ccc2c(-c3ccccc3Cl)cc(F)nc2c1)C(=O)N1CCC[C@H](C(=O)O)C1 [Compound 12, (3S)-1-[(2R)-2-[[4-(2-chlorophenyl)-2-fluoro-7-quinolyl]oxy]propanoyl]piperidine-3-carboxylic acid]",< 20 nM,< 10 nM
"Cc1ccccc1-c1ccnc2cc(O[C@H](C)C(=O)N3CCC[C@H](CC(=O)O)C3)ccc12 [Compound 13, 2-[(3R)-1-[(2R)-2-[[4-(o-tolyl)-7-quinolyl]oxy]propanoyl]-3-piperidyl]acetic acid]",20 to 100 nM,10 to 50 nM
"CCOC(=O)[C@H]1CCCN(C(=O)[C@@H](C)Oc2ccc3c(-c4ccccc4C)ccnc3c2)C1 [Compound 14, ethyl (3S)-1-[(2R)-2-[[4-(o-tolyl)-7-quinolyl]oxy]propanoyl]piperidine-3-carboxylate]",20 to 100 nM,50 to 500 nM
"CCOC(=O)C[C@H]1CCCN(C(=O)[C@@H](C)Oc2ccc3c(-c4ccc(F)cc4Cl)ccnc3c2)C1 [Compound 15, ethyl 2-((R)-1-((R)-2-((4-(2-chloro-4-fluorophenyl)quinolin-7-yl)oxy)propanoyl)piperidin-3-yl)acetate]",20 to 100 nM,50 to 500 nM
"C[C@@H](Oc1ccc2c(-c3ccccc3Cl)ccnc2c1)C(=O)N1CCC[C@H](CC(=O)O)C1 [Compound 16, 2-[(3R)-1-[(2R)-2-[[4-(2-chlorophenyl)-7-quinolyl]oxy]propanoyl]-3-piperidyl]acetic acid]",20 to 100 nM,50 to 500 nM
"C[C@@H](Oc1ccc2c(-c3ccc(F)cc3Cl)ccnc2c1)C(=O)N1CCC[C@@H](C(=O)O)C1 [Compound 17, (3R)-1-[(2R)-2-[[4-(2-chloro-4-fluoro-phenyl)-7-quinolyl]oxy]propanoyl]piperidine-3-carboxylic acid]",20 to 100 nM,50 to 500 nM
"C[C@@H](Oc1ccc2c(-c3ccc(F)cc3Cl)ccnc2c1)C(=O)N1CCC[C@H](CC(=O)O)C1 [Compound 18, 2-((R)-1-((R)-2-((4-(2-chloro-4-fluorophenyl)quinolin-7-yl)oxy)propanoyl)piperidin-3-yl)acetic acid]",20 to 100 nM,50 to 500 nM
"C[C@@H](Oc1ccc2c(-c3ccc(F)cc3Cl)ccnc2c1)C(=O)N1CC[C@H](C(=O)O)C1 [Compound 19, (3S)-1-[(2R)-2[[4-(2-chloro-4-fluoro-phenyl)-7-quinolyl]oxy]propanoyl]pyrrolidine-3-carboxylic acid]",20 to 100 nM,50 to 500 nM
"C[C@@H](Oc1ccc2c(-c3ccc(F)cc3Cl)ccnc2c1)C(=O)N1CCCCC1 [Compound 20, (2R)-2[[4-(2-chloro-4-fluoro-phenyl)-7-quinolyl]oxy]-1-(1-piperidyl)propan-1-one]",20 to 100 nM,10 to 50 nM
"Cc1ccccc1-c1cc(Cl)nc2cc(O[C@H](C)C(=O)N3CCC[C@H](CC(=O)O)C3)ccc12 [Compound 21, 2-[(3R)-1-[(2R)-2-[[2-chloro-4-(o-tolyl)-7-quinolyl]oxy]propanoyl]-3-piperidyl]acetic acid]",20 to 100 nM,500 to 5000 nM
"C[C@@H](Oc1ccc2c(-c3ccc(F)cc3Cl)ccnc2c1)C(=O)N1CCC[C@@H](CC(=O)O)C1 [Compound 22, 2-[(3S)-1-[(2R)-2-[[4-(2-chloro-4-fluoro-phenyl)-7-quinolyl]oxy]propanoyl]-3-piperidyl]acetic acid]",20 to 100 nM,50 to 500 nM
"C[C@@H](Oc1ccc2c(-c3ccc(F)cc3Cl)ccnc2c1)C(=O)N1CCC(C(=O)O)CC1 [Compound 24, 1-[(2R)-2-[[4-(2-chloro-4-fluoro-phenyl)-7-quinolyl]oxy]propanoyl]piperidine-4-carboxylic acid]",20 to 100 nM,50 to 500 nM
"Cc1ccccc1-c1cc(Cl)nc2cc(O[C@H](C)C(=O)N3CCC[C@H](C(=O)O)C3)ccc12 [Compound 25, (3S)-1-[(2R)-2-[[2-chloro-4-(o-tolyl)-7-quinolyl]oxy]propanoyl]piperidine-3-carboxylic acid]",20 to 100 nM,10 to 50 nM
"C[C@@H](Oc1ccc2c(-c3ccc(F)cc3Cl)ccnc2c1)C(=O)Nc1cccc(C(=O)O)c1 [Compound 26, 3-[[(2R)-2-[[4-(2-chloro-4-fluoro-phenyl)-7-quinolyl]oxy]propanoyl]amino]benzoic acid]",20 to 100 nM,50 to 500 nM
"CCOC(=O)[C@H]1CCCN(C(=O)[C@@H](C)Oc2ccc3c(-c4ccc(F)cc4Cl)ccnc3c2)C1 [Compound 27, ethyl (3S)-1-[(2R)-2-[[4-(2-chloro-4-fluoro-phenyl)-7-quinolyl]oxy]propanoyl]piperidine-3-carboxylate]",20 to 100 nM,500 to 5000 nM
"CCC(=O)N1CCN(C(=O)[C@@H](C)Oc2ccc3c(-c4ccc(F)cc4Cl)ccnc3c2)CC1 [Compound 28, (R)-2-((4-(2-chloro-4-fluorophenyl)quinolin-7-yl)oxy)-1-(4-propionylpiperazin-1-yl)propan-1-one]",100 to 1000 nM,10 to 50 nM
"C[C@@H](Oc1ccc2c(-c3ccccc3Cl)ccnc2c1)C(=O)OC(C)(C)C [Compound 29, tert-butyl (2R)-2-[[4-(2-chlorophenyl)-7-quinolyl]oxy]propanoate]",100 to 1000 nM,< 10 nM
